From patent US20260258369A1, “GENERATION OF BRANCHING URETERIC BUD AND COLLECTING DUCT ORGANOIDS FROM HUMAN PLURIPOTENT STEM CELLS” (The Brigham and Women's Hospital, Inc., priority 2023, published 2026)
“Also recorded” adds a separate entry of the source.

Experiments:
[1] = tested on: CD organoid-derived cells; assay: Aldosterone response of transepithelial current in CD organoid-derived cells; assay type: cell-based, human; conditions: 24 hours; for increase in amiloride-sensitive current: aldosterone 10-100 nM, no dexamethasone
ENaC [2] = target: T1, ENaC (Homo sapiens, UniProt P37088+P51168+P51170); conditions: amiloride 10 μM, open circuit
T1 sequence (P37088 1-669): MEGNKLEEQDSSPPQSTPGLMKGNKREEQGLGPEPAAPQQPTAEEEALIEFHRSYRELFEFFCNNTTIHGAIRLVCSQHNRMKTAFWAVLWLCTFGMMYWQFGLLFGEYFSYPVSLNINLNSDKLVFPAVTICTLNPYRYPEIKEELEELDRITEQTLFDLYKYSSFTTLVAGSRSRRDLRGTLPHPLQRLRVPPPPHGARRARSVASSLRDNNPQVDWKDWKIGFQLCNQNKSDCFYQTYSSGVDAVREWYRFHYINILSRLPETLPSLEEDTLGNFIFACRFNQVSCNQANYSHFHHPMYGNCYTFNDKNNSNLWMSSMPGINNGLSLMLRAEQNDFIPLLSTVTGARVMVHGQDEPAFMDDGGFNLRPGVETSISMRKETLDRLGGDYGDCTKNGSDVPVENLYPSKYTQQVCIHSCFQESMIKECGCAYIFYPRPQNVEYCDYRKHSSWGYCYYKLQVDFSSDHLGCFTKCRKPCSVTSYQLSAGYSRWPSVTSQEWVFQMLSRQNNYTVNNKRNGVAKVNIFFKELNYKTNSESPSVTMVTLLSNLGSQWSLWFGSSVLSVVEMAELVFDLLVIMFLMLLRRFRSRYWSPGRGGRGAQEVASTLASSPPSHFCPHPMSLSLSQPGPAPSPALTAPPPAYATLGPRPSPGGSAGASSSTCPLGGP
T1 sequence (P51168 1-640): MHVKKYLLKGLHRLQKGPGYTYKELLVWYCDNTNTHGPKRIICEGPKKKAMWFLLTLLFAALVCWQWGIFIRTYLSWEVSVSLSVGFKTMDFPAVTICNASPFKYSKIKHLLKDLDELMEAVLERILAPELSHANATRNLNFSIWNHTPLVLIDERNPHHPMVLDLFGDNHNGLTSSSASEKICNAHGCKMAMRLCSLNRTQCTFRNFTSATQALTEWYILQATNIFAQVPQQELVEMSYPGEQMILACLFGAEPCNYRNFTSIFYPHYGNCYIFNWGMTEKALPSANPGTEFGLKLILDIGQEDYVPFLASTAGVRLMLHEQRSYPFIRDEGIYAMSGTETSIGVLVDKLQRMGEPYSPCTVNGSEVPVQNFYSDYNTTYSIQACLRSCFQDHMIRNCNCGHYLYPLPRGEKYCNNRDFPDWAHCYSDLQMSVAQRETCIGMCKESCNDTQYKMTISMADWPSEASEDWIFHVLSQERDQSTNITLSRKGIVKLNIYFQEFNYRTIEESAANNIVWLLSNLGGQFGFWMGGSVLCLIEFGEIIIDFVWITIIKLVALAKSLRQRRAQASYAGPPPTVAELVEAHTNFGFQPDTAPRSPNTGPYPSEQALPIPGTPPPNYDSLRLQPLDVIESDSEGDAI
T1 sequence (P51170 1-649): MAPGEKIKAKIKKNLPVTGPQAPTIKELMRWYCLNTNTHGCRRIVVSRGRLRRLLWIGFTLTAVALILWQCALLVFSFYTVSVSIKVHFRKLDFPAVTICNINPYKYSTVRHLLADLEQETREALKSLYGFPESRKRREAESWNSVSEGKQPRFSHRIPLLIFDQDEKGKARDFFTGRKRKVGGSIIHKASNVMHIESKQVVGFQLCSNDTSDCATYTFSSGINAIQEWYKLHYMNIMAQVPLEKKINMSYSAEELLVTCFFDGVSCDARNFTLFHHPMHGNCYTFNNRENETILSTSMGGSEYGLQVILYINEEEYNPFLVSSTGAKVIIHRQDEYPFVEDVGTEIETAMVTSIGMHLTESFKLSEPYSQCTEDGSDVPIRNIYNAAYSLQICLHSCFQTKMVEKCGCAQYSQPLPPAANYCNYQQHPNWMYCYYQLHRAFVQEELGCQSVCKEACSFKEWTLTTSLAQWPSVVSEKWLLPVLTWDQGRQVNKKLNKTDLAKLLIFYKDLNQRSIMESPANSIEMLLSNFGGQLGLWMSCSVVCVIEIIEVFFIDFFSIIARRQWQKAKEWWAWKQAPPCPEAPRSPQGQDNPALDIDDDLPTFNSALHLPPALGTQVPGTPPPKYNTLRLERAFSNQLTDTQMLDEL

V-type ATPase [3] = target: T2, V-type ATPase (Homo sapiens, UniProt P27449); assay: Ussing chamber short-circuit current in FOXI1-induced CD cells; conditions: closed circuit
V-type ATPase [4] = assay: Transwell open-circuit voltage and calculated current in FOXI1-induced (doxycycline-treated) CD cells; assay type: cell-based, human; conditions: open circuit transwell, amiloride 10 μM
ENaC [5] = target: T1, ENaC; assay: Ussing chamber short-circuit current (Isc) recordings in CD organoid-derived cells; assay type: cell-based; set-up: while the alpha subunit (SCNN1A) was expressed at lower levels; we confirmed expression at the protein level using an antibody specific to SCNN1B; the beta and gamma subunits were most abundant transcriptionally; endogenous in cells; host or cells: 2D cell line derived from hPSC-derived collecting duct organoids (principal cells), grown on transwell / Snapwell inserts
V-type ATPase [6] = target: T2, V-type ATPase; assay: Transwell open-circuit voltage and calculated current in FOXI1-induced (doxycycline-treated) CD cells; assay type: cell-based; conditions: bafilomycin 10 nM, added after amiloride, open circuit

## C[C@]12CCC(=O)C=C1CC[C@@H]1[C@@H]2[C@@H](O)C[C@]2(C=O)[C@@H](C(=O)CO)CC[C@@H]12 [Aldosterone, aldosterone]
[1]
  increase in amiloride-sensitive current: ~ 2.5 fold
[1]; listed as aldosterone
  increase in amiloride-sensitive current: approximately 2.5 fold
[1]; varying concentrations of aldosterone
  transepithelial voltage and current: dose-dependent increase

## N=C(N)NC(=O)c1nc(Cl)c(N)nc1N [amiloride]
ENaC [2]
  transepithelial resistance: raising the transepithelial resistance
ENaC [2]; within several minutes
  transepithelial voltage and current: completely abolished
V-type ATPase [3]
  short-circuit current in FOXI1-induced cells, amiloride: small increase in current
V-type ATPase [4]
  amiloride sensitivity of FOXI1-induced cells: largely lost sensitivity
ENaC [5]; amiloride 100 μM, Ussing chamber
  residual short-circuit current after raising the concentration: eliminated the small amount of residual current; also recorded: completely abolished
ENaC [5]; read-out: inhibition of short-circuit current
  inhibition at 10 µM: > 95%

## CO/C1=C\C(C)=C\[C@@H](C)[C@@H](O)[C@@H](C)C/C(C)=C/C=C/[C@H](OC)[C@@H]([C@@H](C)[C@@H](O)[C@H](C)[C@@]2(O)C[C@@H](O)[C@H](C)[C@@H](C(C)C)O2)OC1=O [bafilomycin, bafilomycin-A1]
V-type ATPase [3]
  short-circuit current in FOXI1-induced cells, bafilomycin: near complete inhibition of the current
V-type ATPase [6]
  voltage and calculated current in FOXI1-induced cells: completely suppressed
